Test results published in EP2181708A1, “Use of Valproate for reducing CHOP levels, particularly in a mammal having SCI” (Universitat Autonoma de Barcelona, priority 2008, dated 2010).

How the values were obtained:
Format in all cases: in vivo, Sprague-Dawley rats
[1] = system: axons; experiment: Immunohistochemistry of axons (RT97 neurofilament, 5-HT) after SCI
Procedure: (§1) Adult females Sprague-Dawley rats aged 11 weeks (220-250 g) were anesthetized with pentobarbital (40 mg/kg i.p.). When unresponsive, the vertebral column was exposed and a laminectomy carried out at T8-T9 levels. Rostral T7 and caudal T10 vertebral bodies were clamped with Adson stabilizing forceps, and carefully adjusted to level the spinal cord in the horizontal plane. A contusion injury was performed using the Infinite Horizon impactor device (Precision Scientific Instruments, Lexington, KY). The stainless steel impounder tip was placed at 3-4 mm above the exposed spinal cord, and then a fast impact produced applying forces of 150 or 250 kilodynes (KDyn) to the exposed spinal cord. The wound was sutured with 5-0 silk thread in the muscular plane and the skin was closed with small clips and disinfected with povidone iodine solution. Sham-operated animals received the same surgical procedure but sustained no impact injury; the spinal cord was left exposed for 5 min. The animals were maintained in a warm environment until full recovery, and received preventive antibiotic (amoxicyline) and analgesic (buprenorphine) treatment. All animals were kept under standard conditions of light and temperature and fed with food and water ad libitum. […]

[2] = system: oligodendrocytes, astrocytes; experiment: Immunohistochemistry of glia (CC1/APC oligodendrocytes, GFAP astrocytes) after SCI
Procedure: as §1

[3] = system: ATF4; experiment: Western blot of ATF4 in spinal cord after contusion SCI; conditions: VPA-treated injured spinal cords compared with vehicle-treated ones
Procedure: as §1, with “min.” for “min. The animals were maintained in a warm environment until full recovery, and received preventive antibiotic (amoxicyline) and analgesic (buprenorphine) treatment. All animals were kept under standard conditions of light and temperature and fed with food and water ad libitum.”
Rats were re-anesthetised and decapitated at 3 dpo for sample preparation. […] After clearance, protein concentration was measured by the BCA method assay (BCA Protein Assay kit, Pierce). […] The membrane was visualized by enhanced chemiluminiscence (ECL) method and the images analyzed with Gene Snap and Gene Tools software, and Gene Genome apparatus (Syngene). […]

[4] = system: tibialis anterior muscle; experiment: Electrophysiological tests (H/M ratio, motor evoked potentials) after spinal cord contusion
Procedure: Adult females Sprague-Dawley rats aged 11 weeks (220-250 g) were anesthetized with pentobarbital (40 mg/kg i.p.). When unresponsive, the vertebral column was exposed and a laminectomy carried out at T8-T9 levels. Rostral T7 and caudal T10 vertebral bodies were clamped with Adson stabilizing forceps, and carefully adjusted to level the spinal cord in the horizontal plane. A contusion injury was performed using the Infinite Horizon impactor device (Precision Scientific Instruments, Lexington, KY). The stainless steel impounder tip was placed at 3-4 mm above the exposed spinal cord, and then a fast impact produced applying forces of 150 or 250 kilodynes (KDyn) to the exposed spinal cord. The wound was sutured with 5-0 silk thread in the muscular plane and the skin was closed with small clips and disinfected with povidone iodine solution. Sham-operated animals received the same surgical procedure but sustained no impact injury; the spinal cord was left exposed for 5 min. The animals were maintained in a warm environment until full recovery, and received preventive antibiotic (amoxicyline) and analgesic (buprenorphine) treatment. All animals were kept under standard conditions of light and temperature and fed with food and water ad libitum. The procedures involving animals were approved by the Ethics Committee of our institution, and followed the European Communities Council Directive 86/609/EEC.
VPA was intraperitoneally administered at an initial dose of 150 mg/kg by 3 h after surgery, and then a dose of 300 mg/Kg either every 24 h or every 12 h during the first week post-surgery, following by a dose of 300 mg/Kg every 24 h for the next two weeks. […]
Electrophysiological tests were performed at 14 and 28 days after operation. […] The H/M amplitude ratio was calculated. Motor evoked potentials (MEPs) were elicited by transcranial stimulation with two needle electrodes placed subcutaneously over the skull, delivering pulses of 0.1 ms duration and 25 mA intensity, and recorded from the tibialis anterior muscle (Garcia-Alias et al., 2003).

SMILES: CCCC(CCC)C(=O)O [VPA, 2-propylpentanoic acid]
- density of axonal profiles ([1]; anti-neurofilament antibody RT97, rostral and caudal to the lesion): increased density
- number of serotonin (5-HT)-positive axons ([1]; rostral and caudal to the lesion): increased
- total GFAP immunoreactivity in astrocytes ([2]; 35 dpo): no significant alterations
- proportion of oligodendrocytes ([2]; CC1 antibody, 1 and 2 mm caudal to the epicentre, vs vehicle): markedly increased
- levels of ATF4 [3]: significantly higher levels
- mean amplitudes of MEPs ([4]; 14 and 28 days postlesion, vs group control): slightly higher
- mean H/M amplitude ratio ([4]; 14 days, injured rats): about 9%
- mean H/M amplitude ratio ([4]; 28 days, control group 20%): 16%
